Test results published in patent US3951955A, “Penicillins substituted with heterocyclic groups” (Sumitomo Chemical Company, Limited, priority 1970, dated 1976).
Values after ≈ are worked out from the molar mass of the structure shown.

What was measured:
Assay in all cases: minimal inhibitory concentration, agar dilution method (in vitro)
Type in all cases: cell-based
[1] = system: Pseudomonas aeruginosa 104
Excerpt: (§1) When determined according to the agar dilution method, the penicillins [I] afford the minimal inhibitory concentrations as shown in the following Table 1: […]

[2] = system: Staphylococcus aureus 209P
Excerpt: as §1

[3] = system: Klebsiella pneumoniae 602
Excerpt: as §1

[4] = system: Escherichia coli NIHJ
Excerpt: as §1

[5] = system: Proteus miravilis 2425
Excerpt: as §1

SMILES | MIC [1] | MIC [2] | MIC [3] | MIC [4] | MIC [5]
COc1nc(O)nc2c(O)c(C(=O)NC(C(=O)NC3C(=O)N4C3SC(C)(C)C4C(=O)O)c3ccccc3)cnc12 (stereo not drawn) [Example 52] | 6.25 µg/mL (≈ 11 µM) | 1.56 µg/mL (≈ 2.74 µM) | 3.13 µg/mL (≈ 5.51 µM) | 3.13 µg/mL (≈ 5.51 µM) | 3.13 µg/mL (≈ 5.51 µM)
CC1(C)S[C@@H]2[C@H](NC(=O)C(NC(=O)c3cnc4ccc(O)nc4c3O)c3ccccc3)C(=O)N2[C@H]1C(=O)O (stereo partly drawn) [Example 29] | 3.13 µg/mL (≈ 5.82 µM) | 1.56 µg/mL (≈ 2.9 µM) | 3.13 µg/mL (≈ 5.82 µM) | 1.56 µg/mL (≈ 2.9 µM) | 3.13 µg/mL (≈ 5.82 µM)
CCOC(=O)Oc1c(C(=O)NC(C(=O)N[C@@H]2C(=O)N3[C@@H]2SC(C)(C)[C@@H]3C(=O)O)c2ccccc2)cnc2cc(Cl)ccc12 (stereo partly drawn) [Example 16] | 3.13 µg/mL (≈ 4.99 µM) | 0.2 µg/mL (≈ 0.319 µM) | 0.39 µg/mL (≈ 0.622 µM) | 6.25 µg/mL (≈ 9.97 µM) | 3.13 µg/mL (≈ 4.99 µM)
CC(=O)Nc1ccc2ncc(C(=O)NC(C(=O)N[C@@H]3C(=O)N4[C@@H]3SC(C)(C)[C@@H]4C(=O)O)c3ccccc3)c(O)c2n1 (stereo partly drawn) [Example 30] | 6.25 µg/mL (≈ 10.8 µM) | 0.78 µg/mL (≈ 1.35 µM) | 3.13 µg/mL (≈ 5.41 µM) | 3.13 µg/mL (≈ 5.41 µM) | 6.25 µg/mL (≈ 10.8 µM)
Cc1ccnc2c(O)c(C(=O)NC(C(=O)NC3C(=O)N4C3SC(C)(C)C4C(=O)O)c3ccccc3)cnc12 (stereo not drawn) [Example 34] | 3.13 µg/mL (≈ 5.84 µM) | 1.56 µg/mL (≈ 2.91 µM) | 6.25 µg/mL (≈ 11.7 µM) | 3.13 µg/mL (≈ 5.84 µM) | 3.13 µg/mL (≈ 5.84 µM)
CN(C)c1ncc2ncc(C(=O)NC(C(=O)NC3C(=O)N4C3SC(C)(C)C4C(=O)O)c3ccccc3)c(O)c2n1 (stereo not drawn) [Example 51] | 3.13 µg/mL (≈ 5.53 µM) | 0.78 µg/mL (≈ 1.38 µM) | 0.78 µg/mL (≈ 1.38 µM) | 0.78 µg/mL (≈ 1.38 µM) | 1.56 µg/mL (≈ 2.76 µM)
CC1(C)S[C@@H]2[C@H](NC(=O)[C@H](NC(=O)c3cnc4ccccc4c3O)c3ccccc3)C(=O)N2[C@H]1C(=O)O [Example 3, D-(-)-α-(4-hydroxyquinoline-3-carbonamido)-benzylpenicillin] | 6.25 µg/mL (≈ 12 µM) | 0.2 µg/mL (≈ 0.384 µM) | 1.56 µg/mL (≈ 3 µM) | 6.25 µg/mL (≈ 12 µM) | 3.13 µg/mL (≈ 6.01 µM)
CC1(C)S[C@@H]2[C@H](NC(=O)C(NC(=O)c3cnc4cccnc4c3O)c3ccccc3)C(=O)N2[C@H]1C(=O)O (stereo partly drawn) [Example 27] | 3.13 µg/mL (≈ 6 µM) | 0.78 µg/mL (≈ 1.5 µM) | 6.25 µg/mL (≈ 12 µM) | 1.56 µg/mL (≈ 2.99 µM) | 3.13 µg/mL (≈ 6 µM)
COc1ccc2ncc(C(=O)NC(C(=O)N[C@@H]3C(=O)N4[C@@H]3SC(C)(C)[C@@H]4C(=O)O)c3ccccc3)c(O)c2c1 (stereo partly drawn) [Example 19] | 6.25 µg/mL (≈ 11.4 µM) | 0.39 µg/mL (≈ 0.708 µM) | 0.78 µg/mL (≈ 1.42 µM) | 6.25 µg/mL (≈ 11.4 µM) | 1.56 µg/mL (≈ 2.83 µM)
CC1(C)SC2C(NC(=O)C(NC(=O)c3cnc4cnc(NC(=O)OCc5ccccc5)nc4c3O)c3ccccc3)C(=O)N2C1C(=O)O (stereo not drawn) [Example 57] | 6.25 µg/mL (≈ 9.3 µM) | 1.56 µg/mL (≈ 2.32 µM) | 3.13 µg/mL (≈ 4.66 µM) | 6.25 µg/mL (≈ 9.3 µM) | 3.13 µg/mL (≈ 4.66 µM)
CC1(C)SC2C(NC(=O)C(NC(=O)c3cnc4cncnc4c3O)c3cccs3)C(=O)N2C1C(=O)O (stereo not drawn) [Example 58] | 3.13 µg/mL (≈ 5.92 µM) | 0.78 µg/mL (≈ 1.48 µM) | 1.56 µg/mL (≈ 2.95 µM) | 1.56 µg/mL (≈ 2.95 µM) | 3.13 µg/mL (≈ 5.92 µM)
COc1cc2ncc(C(=O)NC(C(=O)NC3C(=O)N4C3SC(C)(C)C4C(=O)O)c3ccccc3)c(O)c2cn1 (stereo not drawn) [Example 60] | 12.5 µg/mL (≈ 22.7 µM) | 1.56 µg/mL (≈ 2.83 µM) | 3.13 µg/mL (≈ 5.67 µM) | 6.25 µg/mL (≈ 11.3 µM) | 3.13 µg/mL (≈ 5.67 µM)
CC1(C)SC2C(NC(=O)C(NC(=O)c3cnc4cccnc4c3O)c3cccs3)C(=O)N2C1C(=O)O (stereo not drawn) [Example 39] | 6.25 µg/mL (≈ 11.8 µM) | 0.78 µg/mL (≈ 1.48 µM) | 3.13 µg/mL (≈ 5.93 µM) | 1.56 µg/mL (≈ 2.96 µM) | 3.13 µg/mL (≈ 5.93 µM)
COc1nc(OC)c2ncc(C(=O)NC(C(=O)NC3C(=O)N4C3SC(C)(C)C4C(=O)O)c3ccccc3)c(O)c2n1 (stereo not drawn) [Example 54] | 6.25 µg/mL (≈ 10.7 µM) | 1.56 µg/mL (≈ 2.68 µM) | 3.13 µg/mL (≈ 5.37 µM) | 6.25 µg/mL (≈ 10.7 µM) | 3.13 µg/mL (≈ 5.37 µM)
CCOC(=O)Oc1c(C(=O)NC(C(=O)N[C@@H]2C(=O)N3[C@@H]2SC(C)(C)[C@@H]3C(=O)O)c2ccccc2)cnc2cc(OC)ccc12 (stereo partly drawn) [Example 17] | 3.13 µg/mL (≈ 5.03 µM) | 0.2 µg/mL (≈ 0.321 µM) | 0.39 µg/mL (≈ 0.626 µM) | 3.13 µg/mL (≈ 5.03 µM) | 1.56 µg/mL (≈ 2.51 µM)
CC1(C)S[C@@H]2[C@H](NC(=O)C(NC(=O)c3cnc4cc(Cl)ccc4c3O)c3ccccc3)C(=O)N2[C@H]1C(=O)O (stereo partly drawn) [Example 15] | 3.13 µg/mL (≈ 5.64 µM) | 0.2 µg/mL (≈ 0.36 µM) | 0.39 µg/mL (≈ 0.703 µM) | 3.13 µg/mL (≈ 5.64 µM) | 1.56 µg/mL (≈ 2.81 µM)
CC1(C)S[C@@H]2[C@H](NC(=O)C(NC(=O)c3cnc4cc(S(C)(=O)=O)ccc4c3O)c3ccccc3)C(=O)N2[C@H]1C(=O)O (stereo partly drawn) [Example 22] | 6.25 µg/mL (≈ 10.4 µM) | 0.39 µg/mL (≈ 0.651 µM) | 0.39 µg/mL (≈ 0.651 µM) | 12.5 µg/mL (≈ 20.9 µM) | 3.13 µg/mL (≈ 5.23 µM)
COc1c(C(=O)NC(C(=O)N[C@@H]2C(=O)N3[C@@H]2SC(C)(C)[C@@H]3C(=O)O)c2ccccc2)cnc2ccccc12 (stereo partly drawn) [Example 14] | 12.5 µg/mL (≈ 23.4 µM) | 0.2 µg/mL (≈ 0.374 µM) | 25 µg/mL (≈ 46.8 µM) | 25 µg/mL (≈ 46.8 µM) | 12.5 µg/mL (≈ 23.4 µM)
Cc1nc(C)c2c(O)c(C(=O)NC(C(=O)NC3C(=O)N4C3SC(C)(C)C4C(=O)O)c3ccccc3)cnc2n1 (stereo not drawn) [Example 48] | 12.5 µg/mL (≈ 22.7 µM) | 0.78 µg/mL (≈ 1.42 µM) | 3.13 µg/mL (≈ 5.68 µM) | 12.5 µg/mL (≈ 22.7 µM) | 6.25 µg/mL (≈ 11.4 µM)
COc1nccc2ncc(C(=O)NC(C(=O)NC3C(=O)N4C3SC(C)(C)C4C(=O)O)c3ccccc3)c(O)c12 (stereo not drawn) [Example 44] | 12.5 µg/mL (≈ 22.7 µM) | 0.78 µg/mL (≈ 1.41 µM) | 12.5 µg/mL (≈ 22.7 µM) | 12.5 µg/mL (≈ 22.7 µM) | 6.25 µg/mL (≈ 11.3 µM)
Cc1cnc2c(O)c(C(=O)NC(C(=O)NC3C(=O)N4C3SC(C)(C)C4C(=O)O)c3ccccc3)cnc2c1 (stereo not drawn) [Example 33] | 6.25 µg/mL (≈ 11.7 µM) | 1.56 µg/mL (≈ 2.91 µM) | 3.13 µg/mL (≈ 5.84 µM) | 3.13 µg/mL (≈ 5.84 µM) | 3.13 µg/mL (≈ 5.84 µM)
CCN(CC)c1ccc2ncc(C(=O)NC(C(=O)NC3C(=O)N4C3SC(C)(C)C4C(=O)O)c3ccccc3)c(O)c2n1 (stereo not drawn) [Example 37] | 3.13 µg/mL (≈ 5.28 µM) | 0.78 µg/mL (≈ 1.32 µM) | 0.78 µg/mL (≈ 1.32 µM) | 0.78 µg/mL (≈ 1.32 µM) | 1.56 µg/mL (≈ 2.63 µM)
CN(C)c1ccc2ncc(C(=O)NC(C(=O)NC3C(=O)N4C3SC(C)(C)C4C(=O)O)c3cccs3)c(O)c2n1 (stereo not drawn) [Example 38] | 6.25 µg/mL (≈ 11 µM) | 0.78 µg/mL (≈ 1.37 µM) | 1.56 µg/mL (≈ 2.73 µM) | 1.56 µg/mL (≈ 2.73 µM) | 1.56 µg/mL (≈ 2.73 µM)
CC1(C)SC2C(NC(=O)C(NC(=O)c3cnc4cncnc4c3O)c3ccccc3)C(=O)N2C1C(=O)O (stereo not drawn) [Example 50] | 3.13 µg/mL (≈ 5.99 µM) | 0.78 µg/mL (≈ 1.49 µM) | 0.78 µg/mL (≈ 1.49 µM) | 1.56 µg/mL (≈ 2.99 µM) | 1.56 µg/mL (≈ 2.99 µM)
COc1ccc2c(O)c(C(=O)NC(C(=O)N[C@@H]3C(=O)N4[C@@H]3SC(C)(C)[C@@H]4C(=O)O)c3ccccc3)cnc2c1 (stereo partly drawn) [Example 18] | 6.25 µg/mL (≈ 11.4 µM) | 0.39 µg/mL (≈ 0.708 µM) | 0.78 µg/mL (≈ 1.42 µM) | 6.25 µg/mL (≈ 11.4 µM) | 1.56 µg/mL (≈ 2.83 µM)
CCCCNc1ccc2ncc(C(=O)NC(C(=O)NC3C(=O)N4C3SC(C)(C)C4C(=O)O)c3ccccc3)c(O)c2n1 (stereo not drawn) [Example 36] | 3.13 µg/mL (≈ 5.28 µM) | 1.56 µg/mL (≈ 2.63 µM) | 3.13 µg/mL (≈ 5.28 µM) | 1.56 µg/mL (≈ 2.63 µM) | 3.13 µg/mL (≈ 5.28 µM)
CC1(C)S[C@@H]2[C@H](NC(=O)C(NC(=O)c3cnc4cc(C(F)(F)F)ccc4c3O)c3ccccc3)C(=O)N2[C@H]1C(=O)O (stereo partly drawn) [Example 20] | 6.25 µg/mL (≈ 10.6 µM) | 0.39 µg/mL (≈ 0.663 µM) | 0.39 µg/mL (≈ 0.663 µM) | 12.5 µg/mL (≈ 21.2 µM) | 3.13 µg/mL (≈ 5.32 µM)
CC1(C)SC2C(NC(=O)C(NC(=O)c3cnc4cnc(N)nc4c3O)c3ccccc3)C(=O)N2C1C(=O)O (stereo not drawn) [Example 59] | 3.13 µg/mL (≈ 5.82 µM) | 0.78 µg/mL (≈ 1.45 µM) | 1.56 µg/mL (≈ 2.9 µM) | 3.13 µg/mL (≈ 5.82 µM) | 3.13 µg/mL (≈ 5.82 µM)
COc1nc(OC)c2c(O)c(C(=O)NC(C(=O)N[C@@H]3C(=O)N4[C@@H]3SC(C)(C)[C@@H]4C(=O)O)c3ccccc3)cnc2n1 (stereo partly drawn) [Example 26] | 3.13 µg/mL (≈ 5.37 µM) | 0.78 µg/mL (≈ 1.34 µM) | 3.13 µg/mL (≈ 5.37 µM) | 3.13 µg/mL (≈ 5.37 µM) | 3.13 µg/mL (≈ 5.37 µM)
CC1(C)SC2C(NC(=O)C(NC(=O)c3cnc4nc(N)ncc4c3O)c3ccccc3)C(=O)N2C1C(=O)O (stereo not drawn) [Example 49] | 12.5 µg/mL (≈ 23.3 µM) | 0.78 µg/mL (≈ 1.45 µM) | 6.25 µg/mL (≈ 11.6 µM) | 6.25 µg/mL (≈ 11.6 µM) | 6.25 µg/mL (≈ 11.6 µM)
